From patent publication US20260125360A1, “HERBICIDAL IMIDAZOLE COMPOUNDS” (SYNGENTA CROP PROTECTION AG, priority 2022, published 2026)

Experiments:
Assay type in all cases: in vivo
Details in all cases: 250 g/ha, evaluated after 13 days
[1] = system: Amaranthus palmeri (AMAPA); experiment: Post-emergence herbicide glasshouse test
Experimental: (§1) Seeds of a variety of test species are sown in standard soil in pots Amaranthus palmeri (AMAPA), Amaranthus retoflexus (AMARE), Echinochloa crus-galli (ECHCG), Ipomoea hederacea (IPOHE)). After cultivation for one day (pre-emergence) or after 8 days cultivation (post-emergence) under controlled conditions in a glasshouse (at 24/16° C., day/night; 14 hours light; 65% humidity), the plants are sprayed with an aqueous spray solution derived from the formulation of the technical active ingredient in acetone/water (50:50) solution containing 0.5% Tween 20 (polyoxyethelyene sorbitan monolaurate, CAS RN 9005-64-5). Compounds are applied at 250 g/ha unless otherwise stated. The test plants are then grown in a glasshouse under controlled conditions in a glasshouse (at 24/16° C., day/night; 14 hours light; 65% humidity) and watered twice daily. After 13 days for pre and post-emergence, the test is evaluated for the percentage damage caused to the plant. The biological activities are shown in the following table on a five-point scale (5=81-100%; 4=61-80%; 3=41-60%; 2=21-40%; 1=0-20%).

[2] = system: Amaranthus retoflexus (AMARE); experiment: Post-emergence herbicide glasshouse test
Experimental: as §1

[3] = system: Echinochloa crus-galli (ECHCG); experiment: Post-emergence herbicide glasshouse test
Experimental: as §1

[4] = system: Ipomoea hederacea (IPOHE); experiment: Post-emergence herbicide glasshouse test
Experimental: as §1

[5] = system: Amaranthus palmeri (AMAPA); experiment: Pre-emergence herbicide glasshouse test
Experimental: as §1

[6] = system: Amaranthus retoflexus (AMARE); experiment: Pre-emergence herbicide glasshouse test
Experimental: as §1

[7] = system: Echinochloa crus-galli (ECHCG); experiment: Pre-emergence herbicide glasshouse test
Experimental: as §1

[8] = system: Ipomoea hederacea (IPOHE); experiment: Pre-emergence herbicide glasshouse test
Experimental: as §1

SMILES | percentage damage caused to the plant, AMAPA (five-point scale) [1] | percentage damage caused to the plant, AMARE (five-point scale) [2] | percentage damage caused to the plant, ECHCG (five-point scale) [3] | percentage damage caused to the plant, IPOHE (five-point scale) [4] | percentage damage caused to the plant, AMAPA (five-point scale) [5] | percentage damage caused to the plant, AMARE (five-point scale) [6] | percentage damage caused to the plant, ECHCG (five-point scale) [7] | percentage damage caused to the plant, IPOHE (five-point scale) [8]
Cc1cc(Cn2cc(C(F)(F)F)nc2-c2ccc(Cl)nc2)nn1C [Compound 1.044] | 4 (4=61-80%) | 4 (4=61-80%) | 1 (1=0-20%) | 4 (4=61-80%) | 5 (5=81-100%) | 5 (5=81-100%) | 1 (1=0-20%) | 1 (1=0-20%)
Cn1ccc(Cn2cc(C(F)(F)F)nc2-c2ccc(Cl)nc2)n1 [Compound 1.045] | 5 (5=81-100%) | 5 (5=81-100%) | 1 (1=0-20%) | 4 (4=61-80%) | 5 (5=81-100%) | 5 (5=81-100%) | 1 (1=0-20%) | 5 (5=81-100%)
CCc1cc(Cn2cc(C(F)(F)F)nc2-c2ccc(Cl)nc2)no1 [Compound 1.046] | 5 (5=81-100%) | 5 (5=81-100%) | 4 (4=61-80%) | 4 (4=61-80%) | 5 (5=81-100%) | 5 (5=81-100%) | 5 (5=81-100%) | 5 (5=81-100%)
FC(F)n1ccc(Cn2cc(C(F)(F)F)nc2-c2ccc(Cl)nc2)n1 [Compound 1.051] | 5 (5=81-100%) | 5 (5=81-100%) | 1 (1=0-20%) | 4 (4=61-80%) | 5 (5=81-100%) | 5 (5=81-100%) | 1 (1=0-20%) | 5 (5=81-100%)
Cn1cc(Cn2cc(C(F)(F)F)nc2-c2ccc(Cl)nc2)nn1 [Compound 1.057] | 4 (4=61-80%) | 4 (4=61-80%) | 4 (4=61-80%) | 4 (4=61-80%) | 5 (5=81-100%) | 5 (5=81-100%) | 4 (4=61-80%) | 5 (5=81-100%)
FC(F)c1cc(Cn2cc(C(F)(F)F)nc2-c2ccc(Cl)nc2)no1 [Compound 1.059] | 5 (5=81-100%) | 5 (5=81-100%) | 5 (5=81-100%) | 5 (5=81-100%) | 5 (5=81-100%) | 5 (5=81-100%) | 5 (5=81-100%) | 5 (5=81-100%)
CCn1ccc(Cn2cc(C(F)(F)F)nc2-c2ccc(Cl)nc2)n1 [Compound 1.063] | 5 (5=81-100%) | 5 (5=81-100%) | 1 (1=0-20%) | 3 (3=41-60%) | 5 (5=81-100%) | 5 (5=81-100%) | 1 (1=0-20%) | 5 (5=81-100%)
Cc1nnc(Cn2cc(C(F)(F)F)nc2-c2ccc(Cl)nc2)s1 [Compound 1.065] | 5 (5=81-100%) | 5 (5=81-100%) | 1 (1=0-20%) | 1 (1=0-20%) | 5 (5=81-100%) | 5 (5=81-100%) | 1 (1=0-20%) | 5 (5=81-100%)
Cn1nnc(Cn2cc(C(F)(F)F)nc2-c2ccc(Cl)nc2)c1C(F)F [Compound 1.070] | 4 (4=61-80%) | 4 (4=61-80%) | 1 (1=0-20%) | 4 (4=61-80%) | 5 (5=81-100%) | 5 (5=81-100%) | 1 (1=0-20%) | 4 (4=61-80%)
Cc1cc(Cn2cc(C(F)(F)F)nc2-c2ccc(Cl)nc2)no1 [Compound 1.075] | 5 (5=81-100%) | 5 (5=81-100%) | 5 (5=81-100%) | 5 (5=81-100%) | 5 (5=81-100%) | 5 (5=81-100%) | 5 (5=81-100%) | 5 (5=81-100%)
FC(F)(F)c1cn(Cc2ccsn2)c(-c2ccc(Cl)nc2)n1 [Compound 1.077] | 4 (4=61-80%) | 4 (4=61-80%) | 1 (1=0-20%) | 1 (1=0-20%) | 5 (5=81-100%) | 5 (5=81-100%) | 1 (1=0-20%) | 1 (1=0-20%)
Cn1nc(Cn2cc(C(F)(F)F)nc2-c2ccc(Cl)nc2)cc1Cl [Compound 1.084] | 4 (4=61-80%) | 4 (4=61-80%) | 1 (1=0-20%) | 4 (4=61-80%) | 5 (5=81-100%) | 5 (5=81-100%) | 3 (3=41-60%) | 5 (5=81-100%)
CCn1nnc(Cn2cc(C(F)(F)F)nc2-c2ccc(Cl)nc2)n1 [Compound 1.086] | 5 (5=81-100%) | 5 (5=81-100%) | 5 (5=81-100%) | 5 (5=81-100%) | 5 (5=81-100%) | 5 (5=81-100%) | 5 (5=81-100%) | 5 (5=81-100%)
